Among the test systems are A498 renal; BT-549 breast; CCRF-CEM leukemia; HCT-116 colon; HOP-62 NSCLC; HOP-92 NSCLC; K-562 leukemia; M14 melanoma; MCF7 breast; UACC-257 melanoma.
Experiment in all cases: NCI-60 cell line screen, 48 h

SMILES strings stand for the structures.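 In this assay, cells in 96-well plates receive the compound at five concentrations for 48 hours. Endpoints are linearly interpolated between the surrounding concentrations. Definition used: TGI = concentration required for complete inhibition of growth.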

In the case of `NC(=O)Cc1nc2c(N)ncnc2n1C1OC(CO)C(O)C1O` (stereo not given), the TGI in the assay with A498 renal, in the assay on BT-549 breast, with CCRF-CEM leukemia, in the assay with HCT-116 colon, in the assay on HOP-62 NSCLC and with HOP-92 NSCLC was above 100 µM each time. For the same compound, the TGI with K-562 leukemia, in the assay on M14 melanoma, with MCF7 breast and with UACC-257 melanoma was above 100 µM throughout.
In the case of `CS(=O)(=O)c1ccc(N=C/C=C/Nc2ccc(S(C)(=O)=O)cc2)cc1`, the TGI in the assay on A498 renal, in the assay on BT-549 breast, in the assay with CCRF-CEM leukemia, in the assay with HCT-116 colon, in the assay on HOP-62 NSCLC and in the assay on HOP-92 NSCLC was above 100 µM each time. Besides, the TGI with K-562 leukemia, with M14 melanoma, in the assay with MCF7 breast and in the assay with UACC-257 melanoma was above 100 µM throughout.
Regarding `C/C=C(\C)C(O)C(C)C(O)C/C=C(C)/C=C(\C)C/C(C)=C/C/C=C(\C)C(O)C(C)c1ccc(CCC)c(=O)o1` (stereo not given), the TGI with A498 renal is 50.6 µM; with BT-549 breast it was 25 µM; in the assay with CCRF-CEM leukemia, above 100 µM; in the assay on HCT-116 colon, 19.7 µM; in the assay on HOP-62 NSCLC, 30.4 µM; in the assay with HOP-92 NSCLC it was 44 µM. In addition, the TGI is above 100 µM in the assay with K-562 leukemia, 28.4 µM in the assay with M14 melanoma, 22.9 µM with MCF7 breast and 15.2 µM with UACC-257 melanoma.
On to `CC(C)[C@H](NC(=O)[C@H](N)Cc1ccc(N(CCCl)CCCl)cc1)C(=O)O`, for which the TGI in the assay with A498 renal, in the assay with BT-549 breast, in the assay on CCRF-CEM leukemia, with HCT-116 colon, in the assay on HOP-62 NSCLC and with HOP-92 NSCLC was above 100 µM each time. The TGI in the assay on K-562 leukemia, in the assay on M14 melanoma, in the assay on MCF7 breast and in the assay with UACC-257 melanoma was above 100 µM in each case.
With `O=c1[nH]nc(Cc2c[nH]c3ccccc23)o1`, the TGI in the assay on A498 renal, in the assay with BT-549 breast, in the assay on CCRF-CEM leukemia, in the assay on HCT-116 colon, with HOP-62 NSCLC and in the assay on HOP-92 NSCLC was above 100 µM each time. Besides, the TGI in the assay on K-562 leukemia, with M14 melanoma, in the assay on MCF7 breast and in the assay on UACC-257 melanoma was above 100 µM each time.
Regarding `Cn1c(=O)c2c(nc3n2CCCC(=O)N3CC(O)CCl)n(C)c1=O` (stereo not given), the TGI in the assay on A498 renal, with BT-549 breast, with CCRF-CEM leukemia, in the assay on HCT-116 colon, with HOP-62 NSCLC and in the assay on HOP-92 NSCLC was above 100 µM each time. For the same compound, the TGI with K-562 leukemia, in the assay with M14 melanoma, in the assay on MCF7 breast and in the assay on UACC-257 melanoma was above 100 µM throughout.
For `CC(C)=CC(Cc1ccccc1)S(=O)(=O)c1nc2ccccc2s1` (stereo not given), the TGI in the assay on A498 renal is 35.5 µM; with BT-549 breast, 38.6 µM; in the assay on CCRF-CEM leukemia it was 7.49 µM; with HCT-116 colon it was 28.3 µM; in the assay on HOP-62 NSCLC, 64.3 µM; in the assay on HOP-92 NSCLC, 41.7 µM. Moreover, the TGI worked out at 33.4 µM in the assay on K-562 leukemia, 31.2 µM with M14 melanoma, 31.5 µM in the assay on MCF7 breast and 54.2 µM in the assay on UACC-257 melanoma.
For `O=c1c2cc3c(=O)n4c(cc(-c5ccccc5)c5cc(Cl)ccc54)nc3cc2nc2cc(-c3ccccc3)c3cc(Cl)ccc3n12`, the TGI in the assay on A498 renal, in the assay with BT-549 breast, in the assay with CCRF-CEM leukemia, in the assay with HCT-116 colon, in the assay on HOP-62 NSCLC and in the assay on HOP-92 NSCLC was above 100 µM each time. For the same compound, the TGI in the assay on K-562 leukemia, with M14 melanoma, in the assay on MCF7 breast and with UACC-257 melanoma was above 100 µM in each case.
Take `COc1cc(-c2cc(=O)c3c(O)c(CC=C(C)C)c(O)cc3o2)ccc1O`: the TGI in the assay with A498 renal, in the assay on BT-549 breast, in the assay with CCRF-CEM leukemia, in the assay on HCT-116 colon, in the assay on HOP-62 NSCLC and in the assay with HOP-92 NSCLC was above 50 µM in each case. Besides, the TGI is above 50 µM in the assay with K-562 leukemia, 39.7 µM with M14 melanoma, above 50 µM with MCF7 breast and above 50 µM in the assay with UACC-257 melanoma.
On to `COc1ccc(/C=C2\CCS(=O)(=O)c3ccccc3C2=O)cc1`, for which the TGI in the assay with A498 renal is 37.1 µM; with BT-549 breast, 79.8 µM; in the assay with CCRF-CEM leukemia, 68.5 µM; in the assay with HCT-116 colon, 31.2 µM; in the assay with HOP-62 NSCLC, above 100 µM; in the assay with HOP-92 NSCLC it was 71.7 µM. Further, the TGI was above 100 µM in the assay on K-562 leukemia, above 100 µM with M14 melanoma, above 100 µM in the assay with MCF7 breast and 56.5 µM in the assay with UACC-257 melanoma.
On to `CC(C)C(=O)Nc1cc(C(F)(F)F)ccc1[N+](=O)[O-]`, for which the TGI with A498 renal, with BT-549 breast, in the assay with CCRF-CEM leukemia, in the assay on HCT-116 colon, in the assay with HOP-62 NSCLC and in the assay with HOP-92 NSCLC was above 100 µM throughout. In addition, the TGI in the assay with K-562 leukemia, in the assay on M14 melanoma, in the assay on MCF7 breast and in the assay with UACC-257 melanoma was above 100 µM each time.
As for `COc1ccc(Cc2nnc(Nc3ccc(Br)cc3)[nH]c2=O)cc1OC`, the TGI with A498 renal was above 100 µM; with BT-549 breast, above 31.6 µM; in the assay with CCRF-CEM leukemia, above 100 µM; with HCT-116 colon, above 100 µM; in the assay with HOP-62 NSCLC it was above 95.8 µM; in the assay with HOP-92 NSCLC, above 100 µM. The TGI with K-562 leukemia, in the assay with M14 melanoma, in the assay with MCF7 breast and in the assay with UACC-257 melanoma was above 100 µM in each case.

The values above are taken from PubChem BioAssay (NCI).
